According to PMC4769034 (Journal of medicinal chemistry, 2015):
Converted amounts (≈) assume the structure as drawn. “Also recorded” adds a separate entry of the source.

Target: T1, EPAC2 (Mus musculus, UniProt Q9EQZ6)
T1 sequence (Q9EQZ6 1-993 isoform Q9EQZ6-3): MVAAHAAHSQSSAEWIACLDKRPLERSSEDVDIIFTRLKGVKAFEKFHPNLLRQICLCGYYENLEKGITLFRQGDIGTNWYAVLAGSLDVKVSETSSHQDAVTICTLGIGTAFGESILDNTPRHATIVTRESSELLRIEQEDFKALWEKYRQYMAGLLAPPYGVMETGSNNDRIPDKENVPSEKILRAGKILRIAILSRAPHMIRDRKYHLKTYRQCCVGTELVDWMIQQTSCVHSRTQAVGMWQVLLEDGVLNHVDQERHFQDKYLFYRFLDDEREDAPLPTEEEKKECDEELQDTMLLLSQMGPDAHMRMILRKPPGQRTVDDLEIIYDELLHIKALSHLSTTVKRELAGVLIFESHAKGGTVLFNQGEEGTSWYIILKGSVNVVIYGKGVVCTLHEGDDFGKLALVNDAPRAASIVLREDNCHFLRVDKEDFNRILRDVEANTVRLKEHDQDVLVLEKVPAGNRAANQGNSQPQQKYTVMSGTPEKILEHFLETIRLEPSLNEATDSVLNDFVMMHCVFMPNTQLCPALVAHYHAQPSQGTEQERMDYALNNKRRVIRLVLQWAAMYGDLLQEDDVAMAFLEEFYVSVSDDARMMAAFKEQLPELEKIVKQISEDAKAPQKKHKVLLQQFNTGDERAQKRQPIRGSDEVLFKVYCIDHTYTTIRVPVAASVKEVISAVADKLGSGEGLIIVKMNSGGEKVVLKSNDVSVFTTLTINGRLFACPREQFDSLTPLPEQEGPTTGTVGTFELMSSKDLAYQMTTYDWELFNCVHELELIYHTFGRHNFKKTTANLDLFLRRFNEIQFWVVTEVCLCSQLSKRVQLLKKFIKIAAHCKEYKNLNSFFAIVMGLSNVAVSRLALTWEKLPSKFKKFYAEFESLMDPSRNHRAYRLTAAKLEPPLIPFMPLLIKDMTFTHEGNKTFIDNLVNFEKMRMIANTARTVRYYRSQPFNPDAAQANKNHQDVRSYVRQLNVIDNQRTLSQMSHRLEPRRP
Assay: 8-NBD-cAMP competition assay
Conditions: 8-NBD-cAMP competition

Row | Structure (SMILES) | EPAC2 binding activity in words
1 | CC(=O)c1cccc(N/N=C(\C#N)C(=O)c2cc(C(C)(C)C)on2)c1 [Compound 17, N′-(3-Acetylphenyl)-2-(5-tert-butylisoxazol-3-yl)-2-oxoacetohydrazonoyl Cyanide] | dramatic loss of activity
2 | COc1cccc(N/N=C(\C#N)C(=O)c2cc(C(C)(C)C)on2)c1 [Compound 18, 2-(5-tert-Butylisoxazol-3-yl)-N′-(3-methoxyphenyl)-2-oxoacetohydrazonoyl Cyanide] | significant loss of activity
3 | CC(C)(C)c1cc(C(=O)/C(C#N)=N/Nc2cccc(CO)c2)no1 [Compound 19, 2-(5-tert-Butylisoxazol-3-yl)-N′-(3-(hydroxymethyl)phenyl)-2-oxoacetohydrazonoyl Cyanide] | significant loss of activity
4 | N#C/C(=N\Nc1cccc(Cl)c1)C(=O)c1cc(-c2ccccc2)on1 [Compound 41, N′-(3-Chlorophenyl)-2-oxo-2-(5-phenylisoxazol-3-yl)-acetohydrazonoyl Cyanide] | totally inactive
5 | N#C/C(=N\Nc1cc(Cl)c(Cl)c(Cl)c1)C(=O)c1cc(-c2ccccc2)on1 [Compound 48, N′-(3,4,5-Trichlorophenyl)-2-oxo-2-(5-phenylisoxazol-3-yl)-acetohydrazonoyl Cyanide] | totally inactive
6 | CC(C)(C)c1cc(NC(=O)C(C#N)=NNc2cccc(Cl)c2)no1 [Compound 51, N-(5-tert-Butyl-isoxazol-3-yl)-2-[(3-chlorophenyl)-hydrazono]-2-cyanoacetamide] | completely inactive
7 | Cc1cc(NC(=O)C(C#N)=NNc2cccc(Cl)c2)no1 [Compound 52, 2-[(3-Chlorophenyl)-hydrazono]-2-cyano-N-(5-methyl-isoxazol-3-yl)acetamide] | completely inactive
8 | CC(C)(C)c1cc(NC(=O)c2cccc(Cl)c2)no1 [Compound 53, N-(5-(tert-Butyl)isoxazol-3-yl)-3-chlorobenzamide] | entire loss of potency; also recorded: no significant activity
9 | CC(C)(C)c1cc(NC(=O)Nc2cccc(Cl)c2)no1 [Compound 54, 1-(5-tert-Butylisoxazol-3-yl)-3-(3-chlorophenyl)urea] | entire loss of potency; also recorded: no significant activity
10 | CC(C)(C)c1cc(C(=O)Nc2cccc(Cl)c2)no1 [Compound 55, 5-tert-Butyl-N-(3-chlorophenyl)isoxazole-3-carboxamide] | entire loss of potency; also recorded: no significant activity
11 | CC(C)(C)c1cc(C(=O)N/N=C/c2cccc(Cl)c2)no1 [Compound 56, (E)-5-(tert-Butyl)-N′-(3-chlorobenzylidene)isoxazole-3-carbohydrazide] | entire loss of potency; also recorded: no significant activity
12 | CC(C)(C)c1cc(-c2n[nH]c(N)c2/N=N/c2cccc(Cl)c2)no1 [Compound 57, 3-(5-tert-Butylisoxazol-3-yl)-4-((3-chlorophenyl)diazenyl)-1H-pyrazol-5-amine] | entire loss of potency; also recorded: no significant activity

Same assay, conditions: vs compound 1

Row | Structure (SMILES) | fold loss of EPAC2 binding affinity / inhibitory activity in comparison with 1 [fold] | fold more potent than parent compound 1 [fold]
13 | CC(C)(C)c1cc(C(=O)/C(C#N)=N/Nc2ccccc2)no1 [Compound 8, 2-(5-tert-Butylisoxazol-3-yl)-N′-phenyl-2-oxoacetohydrazonoyl Cyanide] | ~7 | –
14 | CC(C)(C)c1cc(C(=O)/C(C#N)=N/Nc2ccccc2Cl)no1 [Compound 9, 2-(5-tert-Butylisoxazol-3-yl)-N′-(2-chlorophenyl)-2-oxoacetohydrazonoyl Cyanide] | 3 | –
15 | CC(C)(C)c1cc(C(=O)/C(C#N)=N/Nc2ccc(Cl)cc2)no1 [Compound 10, 2-(5-tert-Butylisoxazol-3-yl)-N′-(4-chlorophenyl)-2-oxoacetohydrazonoyl Cyanide] | 3 | –
16 | CC(C)(C)c1cc(C(=O)/C(C#N)=N/Nc2ccc(Cl)c(Cl)c2)no1 [Compound 23, 2-(5-tert-Butylisoxazol-3-yl)-N′-(3,4-dichlorophenyl)-2-oxoacetohydrazonoyl Cyanide] | – | ~3

Same assay, conditions: vs compound 8

Row | Structure (SMILES) | fold increase in potency compared to nonsubstituted analogue 8
17 | CC(C)(C)c1cc(C(=O)/C(C#N)=N/Nc2cccc(Br)c2)no1 [Compound 11, 2-(5-tert-Butylisoxazol-3-yl)-N′-(3-bromophenyl)-2-oxoacetohydrazonoyl Cyanide] | 3–4 fold
18 | CC(C)(C)c1cc(C(=O)/C(C#N)=N/Nc2cccc(F)c2)no1 [Compound 12, 2-(5-tert-Butylisoxazol-3-yl)-N′-(3-fluorophenyl)-2-oxoacetohydrazonoyl Cyanide] | 3–4 fold
19 | CC(C)(C)c1cc(C(=O)/C(C#N)=N/Nc2cccc(C(F)(F)F)c2)no1 [Compound 13, 2-(5-tert-Butylisoxazol-3-yl)-N′-(3-trifluoromethylphenyl)-2-oxoacetohydrazonoyl Cyanide] | approximately 5 fold
20 | CC(C)(C)c1cc(C(=O)/C(C#N)=N/Nc2cccc([N+](=O)[O-])c2)no1 [Compound 14, 2-(5-tert-Butylisoxazol-3-yl)-N′-(3-nitrophenyl)-2-oxoacetohydrazonoyl Cyanide] | about 2 fold
21 | Cc1cccc(N/N=C(\C#N)C(=O)c2cc(C(C)(C)C)on2)c1 [Compound 20, 2-(5-tert-Butylisoxazol-3-yl)-2-oxo-N′-m-tolylacetohydrazonoyl Cyanide] | about 2 fold

Test system: not listed separately
Assay: Solubility in water by HPLC analysis
Conditions: water

Row | Structure (SMILES) | solubility at 24 h [µg/mL]
22 | CC(C)(C)c1cc(C(=O)/C(C#N)=N/Nc2ccc(F)c(Cl)c2)no1 [Compound 31, 2-(5-tert-Butylisoxazol-3-yl)-N′-(3-chloro-4-fluorophenyl)-2-oxoacetohydrazonoyl Cyanide] | 82.6 ± 3.6 (≈ 237 µM)
23 | CC(C)(C)c1cc(C(=O)/C(C#N)=N/Nc2cc(Cl)c(Cl)c(Cl)c2)no1 [Compound 35, 2-(5-tert-Butylisoxazol-3-yl)-2-oxo-N′-(3,4,5-trichlorophenyl)acetohydrazonoyl Cyanide] | 12.7 ± 1 (≈ 31.8 µM)
24 | CC(C)(C)c1cc(C(=O)/C(C#N)=N/Nc2cc(F)c(F)c(F)c2)no1 [Compound 36, 2-(5-tert-Butylisoxazol-3-yl)-2-oxo-N′-(3,4,5-trifluorophenyl)acetohydrazonoyl Cyanide] | 75.7 ± 7.1 (≈ 216 µM)
25 | N#C/C(=N\Nc1cc(Cl)c(Cl)c(Cl)c1)C(=O)c1cc(C2CCCCC2)on1 [Compound 47, 2-(5-Cyclohexylisoxazol-3-yl)-2-oxo-N′-(3,4,5-trichlorophenyl)acetohydrazonoyl Cyanide] | 10.1 ± 0.79 (≈ 23.7 µM)
